How the values were obtained:
[1] = tested on: breast cancer cell line MX-1; experiment: MX-1 cell line proliferation assay (3-day, Cell Titer Glo); format: cell-based; settings: Homo sapiens, MX1, MX-1 cells, 72 h, top concentration 3 μM, read-out: Cellular proliferation: EC50
Method: The impact of compounds of the Examples on cancer cell proliferation was determined using the breast cancer cell line MX-1 (ATCC) in a 3-day proliferation assay and the data are reported in Table 1. MX-1 cells were maintained in RPMI 1640 medium (Sigma) supplemented with 10% FBS at 37 C.° and an atmosphere of 5% CO2. For compound testing, MX-1 cells were plated in 96-well black bottom plates at a density of 5000 cells/well in 90 μL of culture media and incubated at 37° overnight to allow cell adhesion and spreading. Compound dilution series were prepared in DMSO via a 3-fold serial dilution from 3 mM to 0.1 μM. The DMSO dilution series were then diluted 1:100 in phosphate buffered saline, and 10 μL of the resulted solution were added to the appropriate wells of the MX-1 cell plate. The final compound concentrations in the wells were 3, 1, 0.3, 0.1, 0.03, 0.01, 0.003, 0.001, 0.0003 and 0.0001 μM.
Luminescence readings from the Cell Titer Glo assay were normalized to the DMSO treated cells and analyzed using the GraphPad Prism software with sigmoidal curve fitting to obtain EC50s. The minimum significant ratio (MSR) was determined to evaluate assay reproducibility (Eastwood et al., (2006) J Biomol Screen, 11: 253-261).

[2] = biological target: T1, BRD4 (BDII_E352-M457) (Homo sapiens, UniProt O60885); experiment: TR-FRET bromodomain binding assay, BRD4 second bromodomain
T1 construct: made in house
Method: (§1) A time-resolved fluorescence resonance energy transfer (TR-FRET) assay was used to determine the affinities of compounds of the Examples listed in Table 1 for each bromodomain of BRD4. His-tagged first (BD1: amino acids K57-E168) and second (BD2: amino acids E352-E168) bromodomains of BRD4 were expressed and purified. An Alexa647-labeled BET-inhibitor was used as the fluorescent probe in the assay.
(§2) Compound dilution series were prepared in DMSO via an approximately 3-fold serial dilution from one of the following: • Assay method A: 2.5 mM-800 nM • Assay method B: 2.5 mM-797 nM • Assay method C: 1250 μM-21 nM • Assay method D: 500 μM-8.5 nM • Assay method E: 0.47 mM to 7.8 nM • Assay method F: 250 μM-4.2 nM • Assay method G: 0.047 mM to 0.78 nM or 5-fold serial dilution from Assay Method A or Assay Method B.
(§3) For Assay methods A, C, D, and F: Compounds were then diluted 6:100 in assay buffer (20 mM Sodium Phosphate, pH 6.0, 50 mM NaCl, 1 mM Ethylenediaminetetraacetic acid, 0.01% Triton X-100, 1 mM DL-Dithiothreitol) to yield 3× working solutions. Six microliters (μL) of the working solution was then transferred to white, low-volume assay plates (Costar #3673). A 1.5× assay mixture containing His-tagged bromodomain, Europium-conjugated anti-His antibody (Invitrogen PV5596) and the Alexa-647-conjugated probe molecule was also prepared. Twelve μL of this solution were added to the assay plate to reach a final volume of 18 μL.
(§4) For Assay methods B, E, and G: Compound dilutions were added directly into white, low-volume assay plates (Perkin Elmer Proxiplate 384 Plus#6008280) using a Labcyte Echo in conjunction with Labcyte Access and Thermo Multidrop CombinL robotics. Compounds were then suspended in eight microliters (μL) of assay buffer (20 mM Sodium Phosphate, pH 6.0, 50 mM NaCl, 1 mM Ethylenediaminetetraacetic acid disodium salt dihydrate, 0.01% Triton X-100, 1 mM DL-Dithiothreitol) containing His-tagged bromodomain, Europium-conjugated anti-His antibody (Invitrogen PV5596) and Alexa-647-conjugated probe.
(§5) The final concentration of 1× assay mixture for assay methods A, B, C, D, E, F, and G contains 2% DMSO, 8 nM His-tagged bromodomain, 1 nM Europium-conjugated anti-His-tag antibody and 100 nM or 30 nM probe (for BDI or BDII, respectively) and compound concentration in the range of: 50 μM-16 nM for method A, 49.02 μM-15.63 nM for method B, 25 μM-423 pM for method C, 10 μM-169 pM for method D, 9.19 μM-150 pM for method E, 5 μM-85 pM for method F, and 0.92 μM-15 pM for method G.
(§6) After a one-hour equilibration at room temperature, TR-FRET ratios were determined using an Envision multilabel plate reader (Ex 340, Em 495/520).
(§7) TR-FRET data were normalized to the means of 24 no-compound controls (“high”) and 8 controls containing 1 μM un-labeled probe (“low”). Percent inhibition was plotted as a function of compound concentration and the data were fit with the 4 parameter logistic equation to obtain IC50s Inhibition constants (Ki) were calculated from the IC50s, probe Kd and probe concentration. Typical Z′ values were between 0.65 and 0.75. The minimum significant ratio was determined to evaluate assay reproducibility (Eastwood et al., (2006) J Biomol Screen, 11: 253-261). The MSR was determined to be 2.03 for BDI and 1.93 for BDII, and a moving MSR (last six run MSR overtime) for both BDI and BDII was typically <3.

[3] = biological target: T2, BRD4 (BDI_K57-E168) (Homo sapiens, UniProt O60885); experiment: TR-FRET bromodomain binding assay, BRD4 first bromodomain; settings: His-tagged BD1, 100 nM Alexa647 probe; Ki calculated from IC50; dilution protocol A-G
T2 construct: BD1: amino acids K57-E168; made in house
Method: as §1, §2, §3, §4, §5, §6, §7

EC50 [1] [µM]	Ki [2] [µM]	Ki [3] [µM]	Compound
1.35	0.0488	0.0926	Cc1[nH]c(-c2ccccc2Oc2ccccc2)c2cc(C(=O)N3CCC(O)CC3)[nH]c(=O)c12 [Example 30, 6-(4-hydroxypiperidine-1-carbonyl)-3-methyl-1-(2-phenoxyphenyl)-2H-pyrrolo[3,4-c]pyridin-4(5H)-one]
0.0605	0.0341	0.00331	Cc1[nH]c(-c2cc(N)ccc2Oc2ccc(F)cc2F)c2cn[nH]c(=O)c12 [Example 78, 5-[5-amino-2-(2,4-difluorophenoxy)phenyl]-7-methyl-2,6-dihydro-1H-pyrrolo[3,4-d]pyridazin-1-one]
0.0257	0.0159	0.00215	CCS(=O)(=O)Nc1ccc(Oc2ccccc2)c(-c2[nH]c(C)c3c(=O)[nH]c(C(=O)OC)cc23)c1 [Example 7, methyl 1-(5-(ethylsulfonamido)-2-phenoxyphenyl)-3-methyl-4-oxo-4,5-dihydro-2H-pyrrolo[3,4-c]pyridine-6-carboxylate]
0.067	0.0246	0.00304	COC(=O)c1cc2c(-c3ccccc3Oc3ccccc3)[nH]c(C)c2c(=O)[nH]1 [Example 1, methyl 3-methyl-4-oxo-1-(2-phenoxyphenyl)-4,5-dihydro-2H-pyrrolo[3,4-c]pyridine-6-carboxylate]
0.21	0.0113	0.0301	CO[C@H]1C[C@H](NC(=O)c2cc3c(-c4ccccc4Oc4ccccc4)[nH]c(C)c3c(=O)[nH]2)C1 [Example 50, N-(trans-3-methoxycyclobutyl)-3-methyl-4-oxo-1-(2-phenoxyphenyl)-4,5-dihydro-2H-pyrrolo[3,4-c]pyridine-6-carboxamide]
0.0458	0.0115	0.00842	Cc1[nH]c(-c2cc(N)ccc2Oc2ccc(F)cc2F)c2c1C(=O)NC(C)C2 (stereo not drawn) [Example 101, 1-[5-amino-2-(2,4-difluorophenoxy)phenyl]-3,6-dimethyl-2,5,6,7-tetrahydro-4H-pyrrolo[3,4-c]pyridin-4-one]
1.12	0.307	0.105	Cc1[nH]c(-c2ccccc2Oc2ccccc2)c2cc(C(=O)N3CCOCC3)[nH]c(=O)c12 [Example 15, 3-methyl-6-(morpholine-4-carbonyl)-1-(2-phenoxyphenyl)-2H-pyrrolo[3,4-c]pyridin-4(5H)-one]
0.0536	0.0485	0.00521	Cc1[nH]c(-c2ccccc2Oc2ccccc2)c2cc(C(=O)NC3CCN(C)CC3)[nH]c(=O)c12 [Example 35, 3-methyl-N-(1-methylpiperidin-4-yl)-4-oxo-1-(2-phenoxyphenyl)-4,5-dihydro-2H-pyrrolo[3,4-c]pyridine-6-carboxamide]
0.182	0.155	0.0876	Cc1[nH]c(-c2ccccc2Oc2ccccc2)c2cc(C(=O)NCc3ccco3)[nH]c(=O)c12 [Example 31, N-(furan-2-ylmethyl)-3-methyl-4-oxo-1-(2-phenoxyphenyl)-4,5-dihydro-2H-pyrrolo[3,4-c]pyridine-6-carboxamide]
0.0989	0.047	0.00381	Cc1[nH]c(-c2ccccc2Oc2ccccc2)c2cc(C(=O)NCCN3CCOCC3)[nH]c(=O)c12 [Example 27, 3-methyl-N-(2-morpholinoethyl)-4-oxo-1-(2-phenoxyphenyl)-4,5-dihydro-2H-pyrrolo[3,4-c]pyridine-6-carboxamide]
0.0776	0.0913	0.0123	CCOC(=O)c1cc2c(-c3cc(N)ccc3Oc3ccc(F)cc3F)[nH]c(C)c2c(=O)[nH]1 [Example 4, ethyl 1-[5-amino-2-(2,4-difluorophenoxy)phenyl]-3-methyl-4-oxo-4,5-dihydro-2H-pyrrolo[3,4-c]pyridine-6-carboxylate]
0.761	1.62	0.38	Cc1[nH]c(-c2ccccc2Oc2ccccc2)c2nc(-c3ccco3)[nH]c(=O)c12 [Example 88, 2-(furan-2-yl)-5-methyl-7-(2-phenoxyphenyl)-3,6-dihydro-4H-pyrrolo[3,4-d]pyrimidin-4-one]
0.3	0.029	0.0166	Cc1[nH]c(-c2ccccc2Oc2ccccc2)c2cc(C(=O)NC3CCOCC3)[nH]c(=O)c12 [Example 38, 3-methyl-4-oxo-1-(2-phenoxyphenyl)-N-(tetrahydro-2H-pyran-4-yl)-4,5-dihydro-2H-pyrrolo[3,4-c]pyridine-6-carboxamide]
0.41	0.0162	0.00582	Cc1[nH]c(-c2cc(NS(=O)(=O)CC(F)(F)F)ccc2Oc2ccccc2)c2cn[nH]c(=O)c12 [Example 76, 2,2,2-trifluoro-N-[3-(7-methyl-1-oxo-2,6-dihydro-1H-pyrrolo[3,4-d]pyridazin-5-yl)-4-phenoxyphenyl]ethanesulfonamide]
0.163	0.0923	0.00312	Cc1[nH]c(-c2ccccc2Oc2ccccc2)c2cc(C(=O)NCCN3CCCC3)[nH]c(=O)c12 [Example 25, 3-methyl-4-oxo-1-(2-phenoxyphenyl)-N-[2-(pyrrolidin-1-yl)ethyl]-4,5-dihydro-2H-pyrrolo[3,4-c]pyridine-6-carboxamide]
0.0886	0.00591	0.00178	CCS(=O)(=O)Nc1ccc(Oc2ccc(F)cc2F)c(-c2[nH]c(C)c3c(=O)[nH]ncc23)c1 [Example 79, N-[4-(2,4-difluorophenoxy)-3-(7-methyl-1-oxo-2,6-dihydro-1H-pyrrolo[3,4-d]pyridazin-5-yl)phenyl]ethanesulfonamide]
0.0901	0.0316	0.0151	Cc1[nH]c(-c2ccccc2Oc2ccccc2)c2cc(CO)[nH]c(=O)c12 [Example 18, 6-(hydroxymethyl)-3-methyl-1-(2-phenoxyphenyl)-2H-pyrrolo[3,4-c]pyridin-4(5H) one]
0.139	0.257	0.0435	Cc1[nH]c(-c2ccccc2Oc2ccccc2)c2cc(-c3nc(C4CC4)no3)[nH]c(=O)c12 [Example 63, 6-(3-cyclopropyl-1,2,4-oxadiazol-5-yl)-3-methyl-1-(2-phenoxyphenyl)-2H-pyrrolo[3,4-c]pyridin-4(5H)-one]
0.737	0.615	0.0956	CCOC(=O)c1cc2c(-c3ccc(-c4cc(C)n[nH]4)cc3)[nH]c(C)c2c(=O)[nH]1 [Example 8, ethyl 3-methyl-1-[4-(3-methyl-1H-pyrazol-5-yl)phenyl]-4-oxo-4,5-dihydro-2H-pyrrolo[3,4-c]pyridine-6-carboxylate]

From patent US9050346B2, “Bromodomain inhibitors” (AbbVie Inc., priority 2013, dated 2015)
